Experimental data published in PMC8280112, “Substrate reduction therapy for Krabbe disease and metachromatic leukodystrophy using a novel ceramide galactosyltransferase inhibitor” (Scientific Reports, 2021).

Molecular target: T1, Human CGT (Homo sapiens, UniProt Q16880)
T1 construct: made in house; host or cells: CHO cells expressing UGT8; crude M-PER lysate
T1 sequence (Q16880 21-541): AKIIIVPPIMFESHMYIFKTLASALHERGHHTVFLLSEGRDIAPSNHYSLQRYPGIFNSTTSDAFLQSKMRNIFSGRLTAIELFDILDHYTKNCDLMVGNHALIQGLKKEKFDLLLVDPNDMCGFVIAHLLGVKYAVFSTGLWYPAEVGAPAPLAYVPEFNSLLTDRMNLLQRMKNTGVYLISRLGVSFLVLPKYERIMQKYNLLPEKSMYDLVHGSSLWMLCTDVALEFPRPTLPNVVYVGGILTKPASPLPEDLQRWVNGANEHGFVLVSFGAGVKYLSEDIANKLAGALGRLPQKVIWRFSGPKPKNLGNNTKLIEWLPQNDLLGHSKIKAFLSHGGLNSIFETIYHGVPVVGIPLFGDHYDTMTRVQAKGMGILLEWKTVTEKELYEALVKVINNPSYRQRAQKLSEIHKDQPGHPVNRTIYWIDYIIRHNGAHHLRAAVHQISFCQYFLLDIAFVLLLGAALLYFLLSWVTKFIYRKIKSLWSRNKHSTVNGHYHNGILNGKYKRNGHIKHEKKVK
Experiment: CGT enzyme assay (cell-lysate assay)
Format: biochemical
Settings: lysate of CHO cells expressing human UGT8
Protocol: Human CGT was obtained from a cell lysate from CHO cells expressing UGT8 (made by BioMarin) prepared in M-PER with proteinase inhibitors (Sigma). Compounds, serially diluted in DMSO and Tween 80, were added to 4 µg/well of CHO/CGT cell lysate to make 20 µL final reaction volume containing 0.5% DMSO and 0.01% Tween 80 in the reaction buffer consisting of 10 µM NDB-(2R-OH)-C6 ceramide (made by BioMarin), 17.5 µM UDP-Galactose (Sigma), 35 µM of dioleoylphosphatidylcholine (DOPC), 5 mM MgCl2, 5 mM MnCl2, 1% BSA, 15 mM KCl, 1 mM EGTA, 8 mM CHAPS, 10 mM HEPES–NaOH pH 7.2. The reaction was incubated at 37 °C for 1 h and stopped by adding 80 µL of methanol:acetonitrile (1:3) with 5 µM N-dodecanoyl-NBD-galactosylceramide (Matreya) internal standard (IS) for 30 min. 200 µL H2O:ACN (1:1) was added for 5 min and then centrifuged at 4000 rpm for 38 min at RT before quantifying NDB-(2R-OH)-C6-galactosylceramide (BioMarin) by LC–MS on a Rapid Fire 360 mass spectrometer (Agilent) coupled with a API4000 + MS in electrospray ionization (ESI) negative mode (Applied Biosystems). These assay conditions were used to screen the Bio-active lipid library (Cayman Cat# 10506).

## O=C1N(c2ccc(Br)cc2)C(=O)C(O)(c2ccccc2)N1c1ccc(Br)cc1 (stereo not shown) [S221]
  IC50: 23 µM
